In patent publication US10544138B2, “Tricyclic kinase inhibitors of MELK and methods of use” (Dana-Farber Cancer Institute, Inc., priority 2015, dated 2020):

These molecules were tested on Aurora kinases (assay: Aurora kinase phosphorylation in mitotic cells, immunoblotting). Conditions: 30 min.
Type: cell-based
Description: (§1) Cell lysates were subjected to immunoblotting. […] The fluorescent signals of immunblotting were quantified using Image Studio Lite software (Licor Biosciences, Lincoln, Neb.). The signal of phosphorylated Aurora kinases was normalized to that of loading control (α-tubulin).
Cell lysates were prepared for immunoblotting. In Panels B and C, THZ-4-63-1 inhibits H3T3 phosphorylation in HeLa (B) and U2OS (C) cells. Nocodazole arrested mitotic cells were treated with THZ-4-63-1 at the indicated doses for 30 min. […] Cell lysates were subjected to immunblotting. The signal of H3T3 phosphorylation was normalized to that of α-tubulin (right).
(§2) We next proceeded to test if THZ-4-63-1 inhibits MELK activity in vivo. With a lack of established kinase substrates of MELK during mitosis, we used the auto-phosphorylation of MELK as a surrogate to indicate the activity of MELK. […] We then harvested nocodazole-arrested mitotic cells, and treated cells with increasing concentrations of THZ-4-63-1.
We exposed paclitaxel- or nocodazole-arrested mitotic cells to the individual inhibitor for 30 min in the presence of MG132, and collected lysates for examining signaling involved in chromosome alignment. […] Recent studies unravel a novel role of Aurora B in phosphorylating Haspin^7, a major factor responsible for phosphorylating Histone H3 at Thr3^14. […]

Q: With `Cc1cc(Nc2cc(N3CCN(C)CC3)nc(Sc3ccc(NC(=O)C4CC4)cc3)n2)n[nH]1` [VX-680, reference compound] as the molecule, how does the “Phosphorylation of Aurora kinases” value read?
A: efficiently suppressed the auto-phosphorylation of Aurora kinases

Each molecule was assayed against T1, MELK (Homo sapiens, UniProt Q14680) (assay: Z′-LYTE biochemical assay, MELK inhibition). Conditions: 25 uM ATP concentration; read-out: MELK IC50 as determined by Z′-LYTE biochemical assay.
Set-up: purchased Life Technologies
Description: The invention also provides methods for inhibiting MELK, comprising contacting MELK with a compound of the invention in an amount effective to inhibit MELK. In certain embodiments, the method is conducted in vitro. In certain embodiments, the method is conducted in vivo. Inhibition of MELK can be determined by the Z′-LYTE® biochemical assay from Life Technologies (Life Technologies Z′-LYTE® Screening Protocol and Assay Conditions, June 2012, incorporated herein by reference).
Generally, IC50 against MELK was determined by Z′-LYTE® biochemical assay and are measured in nM at 25 uM ATP concentration.

T1 sequence (Q14680 whole entry): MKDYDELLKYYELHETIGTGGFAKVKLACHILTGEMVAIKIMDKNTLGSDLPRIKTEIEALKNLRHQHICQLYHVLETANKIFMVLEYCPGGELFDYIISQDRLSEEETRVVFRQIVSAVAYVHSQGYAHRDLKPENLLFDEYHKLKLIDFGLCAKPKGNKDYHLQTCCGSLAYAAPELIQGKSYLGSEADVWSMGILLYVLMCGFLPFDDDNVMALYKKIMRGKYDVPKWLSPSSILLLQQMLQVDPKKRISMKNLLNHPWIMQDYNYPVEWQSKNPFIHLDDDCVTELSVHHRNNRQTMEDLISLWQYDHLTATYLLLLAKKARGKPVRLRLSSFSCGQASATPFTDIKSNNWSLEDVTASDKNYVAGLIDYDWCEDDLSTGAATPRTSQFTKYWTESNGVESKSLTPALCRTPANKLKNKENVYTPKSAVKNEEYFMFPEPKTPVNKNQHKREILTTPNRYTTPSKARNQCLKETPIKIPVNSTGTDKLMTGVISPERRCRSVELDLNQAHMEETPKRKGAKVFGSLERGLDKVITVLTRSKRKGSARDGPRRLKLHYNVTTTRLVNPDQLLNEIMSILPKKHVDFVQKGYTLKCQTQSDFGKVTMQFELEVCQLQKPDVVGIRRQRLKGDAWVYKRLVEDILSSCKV

Q: With `O=c1ccc2cnc3ccc(-c4cccc(O)c4)cc3c2n1-c1ccc(N2CCNCC2)c(C(F)(F)F)c1` [Compound 01-092] as the molecule, how does the IC50 read?
A: 0.146 µM

Q: With `CN(C)C[C@H]1CC[C@H](N2C(=O)NCc3cnc4ccc(-c5ccc(NS(C)(=O)=O)cc5)cc4c32)CC1` [Compound 01-131] as the molecule, how does the IC50 read?
A: 4.99 µM

Q: For `O=c1ccc2cnc3ccc(-c4ccc(CO)cc4)cc3c2n1-c1ccc(N2CCNCC2)c(C(F)(F)F)c1` [Compound 01-101], which IC50 is on record?
A: 0.119 µM

Q: `CN(C)C[C@H]1CC[C@H](N2C(=O)N(C)Cc3cnc4ccc(-c5cc(Cl)c(O)c(Cl)c5)nc4c32)CC1` [Compound 02-096] was tested. Which IC50 did it give?
A: 0.0028 µM

Q: `CN1CCC(CN2C(=O)NCc3cnc4ccc(-c5cc(Cl)c(O)c(Cl)c5)cc4c32)CC1` [Compound 02-029] was tested. Which IC50 did it give?
A: 0.386 µM

Q: How did the IC50 turn out when `CN(C)CC1CCC(CN2C(=O)NCc3cnc4ccc(-c5cc(Cl)c(O)c(Cl)c5)cc4c32)CC1` (stereo not drawn) [Compound 02-020] was run?
A: 0.404 µM

Q: How did the IC50 turn out when `CN(C)C[C@H]1CC[C@H](n2c(=O)[nH]c3cnc4ccc(-c5cc(Cl)c(O)c(Cl)c5)cc4c32)CC1` [Compound 02-022, 8-(3,5-dichloro-4-hydroxyphenyl)-1-(trans-4-((dimethylamino)methyl)cyclohexyl)-1,3-dihydro-2H-imidazo[4,5-c]quinolin-2-one] was run?
A: 0.00185 µM

Q: `CN(C)Cc1ccc(N2C(=O)NCc3cnc4ccc(-c5cc(Cl)c(O)c(Cl)c5)cc4c32)cc1` [Compound 01-144] was tested. Which IC50 did it give?
A: 0.0094 µM

Q: Which IC50 does the source give for `O=c1ccc2cnc3ccc(-c4cc(Cl)c(O)c(Cl)c4)cc3c2n1-c1ccc(N2CCNCC2)c(C(F)(F)F)c1` [Compound 01-045] here?
A: 0.00763 µM

Q: How did the IC50 turn out when `O=C1NCc2cnc3ccc(-c4cc(Cl)c(O)c(Cl)c4)cc3c2N1c1ccc(N2CCNCC2)cc1` [Compound 01-100] was run?
A: 0.00216 µM

Q: With `CC(=O)N1CCN(c2ccc(-n3c(=O)ccc4cnc5ccc(-c6cc(Cl)c(O)c(Cl)c6)cc5c43)cc2C(F)(F)F)CC1` [Compound 01-071] as the molecule, how does the IC50 read?
A: 0.294 µM

Q: `CN(C)C[C@H]1CC[C@H](n2c(=O)n(C)c3cnc4ccc(-c5cc(Cl)c(O)c(Cl)c5)cc4c32)CC1` [Compound 02-084, 8-(3,5-dichloro-4-hydroxyphenyl)-1-(trans-4-((dimethylamino)methyl)cyclohexyl)-3-methyl-1,3-dihydro-2H-imidazo[4,5-c]quinolin-2-one] was tested. Which IC50 did it give?
A: 0.00216 µM

Q: `CN(C)C[C@H]1CC[C@H](N2C(=O)NCc3cnc4ccc(-c5cc(Cl)c(O)c(Cl)c5)cc4c32)CC1` [Compound 01-091, 9-(3,5-dichloro-4-hydroxyphenyl)-1-(trans-4-((dimethylamino)methyl)cyclohexyl)-3,4-dihydropyrimido[5,4-c]quinolin-2(1H)-one] was tested. Which IC50 did it give?
A: 0.0105 µM

Q: Which IC50 does the source give for `CN(C)C[C@H]1CC[C@H](N2C(=O)N(C)Cc3cnc4ccc(-c5cc(Cl)c(O)c(Cl)c5)cc4c32)CC1` [Compound 02-095, 9-(3,5-dichloro-4-hydroxyphenyl)-1-(trans-4-((dimethylamino)methyl)cyclohexyl)-3-methyl-3,4-dihydropyrimido[5,4-c]quinolin-2(1H)-one] here?
A: 0.0271 µM

Q: With `O=C1NCc2cnc3ccc(-c4cc(Cl)c(O)c(Cl)c4)cc3c2N1c1ccc(N2CCNCC2)c(C(F)(F)F)c1` [Compound 01-088] as the molecule, how does the IC50 read?
A: 0.00548 µM

Q: How did the IC50 turn out when `CN(C)C[C@H]1CC[C@H](n2c(=O)ccc3cnc4ccc(-c5cc(Cl)c(O)c(Cl)c5)cc4c32)CC1` [Compound 01-087, 9-(3,5-dichloro-4-hydroxyphenyl)-1-(trans-4-((dimethylamino)methyl)cyclohexyl)benzo-[h][1,6]naphthyridin-2(1H)-one] was run?
A: 0.0096 µM

What follows are molecules tested against T1, MELK (assay: Electrophoretic mobility (auto-phosphorylation) of MELK in nocodazole-arrested mitotic cells, immunoblotting). Conditions: nocodazole-arrested mitotic cells (HeLa, MDA-MB-231), 30 min, increasing concentration.
Type: cell-based
Description: […] assays were performed with recombinant protein of the indicated mitotic kinase (left) and AMPK family kinases (right) in the presence of THZ-4-63-1. […] Cells were treated with nocodazole (100 ng/ml) for 18 h or not treated (Asyn., asynchronous). Nocodazole-arrested mitotic cells (M) were isolated via shake-off. The attached cells enriched in G2 phase (G2) were harvested. A portion of the mitotic cells were washed off nocodazole and released into G1 phase after 4 hours of incubation (G1). […] In Panel D, mitotic lysates were prepared from the indicated cells, and treated with λ-phosphatase at 30° C. In Panel E, nocodazole-arrested mitotic cells were treated with increasing concentration of THZ-4-63-1 for 30 min. Cell lysates were subjected to immunoblotting.
as §1, §2

Q: How did the “Electrophoretic mobility of mitotic MELK” value turn out when `O=C1NC(=NCc2cccs2)S/C1=C\c1ccc2ncccc2c1` [RO-3306, reference compound] was run?
A: does not change the electrophoretic mobility of MELK

Q: For `O=C(O)c1ccc(Nc2ncc3c(n2)-c2ccc(Cl)cc2C(c2c(F)cccc2F)=NC3)cc1` [MLN8054, reference compound], which “Electrophoretic mobility of mitotic MELK” value is on record?
A: does not alter the electrophoretic mobility of MELK

The molecules below were run on MDA-MB-468 (assay: Cell growth with paclitaxel combination in MDA-MB-468). Conditions: 2 nM.
Type: cell-based, human
Description: Mitotic cells were treated with THZ-4-63-1 at indicated concentrations for 4 h. Cells were collected for immunoblotting. Panel B contains time-lapse images of U2OS-(H2B-GFP) cells treated with THZ-4-63-1 (5 μM). […] Panel C contains blots showing proteasome-mediated degradation of Cyclin B1, Aurora B and MELK in THZ-4-63-1-induced mitotic slippage. Mitotic cells were treated as in Panel A with THZ-4-63-1 (5 μM), or MG132 (10 μM), or both for 4 h. Panel D contains a graph showing quantification of cell proliferation in the indicated breast cancer cell lines, which were treated with vehicle control or THZ-4-63-1 for one week (Top) and also contains bright-field images acquired from control cells or cells treated with THZ-4-63-1 (111 nM) (Bottom). […] Cells were treated with indicated drugs, and harvested in ten days for quantification of cell growth. The bold curve depicts the theoretic prediction of an additive action between paclitaxel and THZ-4-63-1.
Because microtubule-targeting chemotherapy is the mainstay of treatment for many types of cancer including basal-like breast cancer, we asked if MELK inhibition could combine with drugs that impair microtubule dynamics. […]

Q: Which “Reduction of cell proliferation, paclitaxel alone” value does the source give for `CC(=O)O[C@H]1C(=O)[C@@]2(C)[C@H]([C@H](OC(=O)c3ccccc3)[C@]3(O)C[C@H](OC(=O)[C@H](O)[C@@H](NC(=O)c4ccccc4)c4ccccc4)C(C)=C1C3(C)C)[C@]1(OC(C)=O)CO[C@@H]1C[C@@H]2O` [paclitaxel, reference compound] here?
A: half reduction

Each molecule was assayed on Histone H3 phosphorylation at Thr3 (assay: Histone H3 Thr3 phosphorylation in arrested mitotic cells, immunoblotting). Conditions: paclitaxel- or nocodazole-arrested mitotic cells, 30 min, with MG132.
Type: cell-based
Description: Cell lysates were prepared for immunoblotting. […] HeLa cells were treated with DMSO or THZ-4-63-1 (5 μM) for 4 h followed by 1 h treatment of MG132 (10 μM). Cells were fixed and stained with anti-H3T3ph and anti-CREST. […] Cells were treated as in FIG. 2, Panel D, and additionally treated with MG132 (10 μM) for 1 h before fixation. The histogram indicates the quantification of H3S10ph signal. […] MCF-10A cells stably expressing empty vector (EV) or MELK were fixed for immunostaining. Images were captured with identical exposure time. H3T3ph intensity was quantified by the use of ImageJ. […] Recombinant MELK protein (kinase domain) was incubated with recombinant Histone H3 for 30 min at 30° C. Samples were subjected to immunoblotting using the indicated antibodies. […] Cells stably expressing GFP-MELK were fixed by formaldehyde and stained with anti-H3S10ph. […] Asynchronized (Async.) or nocodazole-arrested mitotic cells were subjected to fractionation, with sample prepared for immunoblotting. Panels H and I are images showing that MELK inhibition impairs the localization of chromosome passenger complex (CPC), indicated by the immunofluorescence detecting Survivin (G) and Aurora B (H). In addition to the presence of doxycyclin or THZ-4-63-1, cells were treated with nocodazole (0.33 μM) and MG132 (10 μM) for 3 h before fixation.
Cell lysates were prepared for immunoblotting. […]

Q: For `Cc1cc(Nc2cc(N3CCN(C)CC3)nc(Sc3ccc(NC(=O)C4CC4)cc3)n2)n[nH]1` [VX-680, reference compound], which “Histone H3 phosphorylation at Thr3” value is on record?
A: inhibition of the downstream Histone H3 phosphorylation at Thr3
